Several values for one entry are separate records, joined by “and”; a condition that tells them apart may be missing. Equal entries are not always repeated. Structures can show the parent of a compound that is named as a salt. Where two headings read alike, the source gives them in different places.
Tests used:
[1] = molecular target: norepinephrine transporter (NET) (Homo sapiens, UniProt P23975); experiment: cell-based; type: cell-based
SERT = SERT (Homo sapiens, UniProt P31645); experiment: Radioligand binding assay
SERT, sequence (P31645 whole entry): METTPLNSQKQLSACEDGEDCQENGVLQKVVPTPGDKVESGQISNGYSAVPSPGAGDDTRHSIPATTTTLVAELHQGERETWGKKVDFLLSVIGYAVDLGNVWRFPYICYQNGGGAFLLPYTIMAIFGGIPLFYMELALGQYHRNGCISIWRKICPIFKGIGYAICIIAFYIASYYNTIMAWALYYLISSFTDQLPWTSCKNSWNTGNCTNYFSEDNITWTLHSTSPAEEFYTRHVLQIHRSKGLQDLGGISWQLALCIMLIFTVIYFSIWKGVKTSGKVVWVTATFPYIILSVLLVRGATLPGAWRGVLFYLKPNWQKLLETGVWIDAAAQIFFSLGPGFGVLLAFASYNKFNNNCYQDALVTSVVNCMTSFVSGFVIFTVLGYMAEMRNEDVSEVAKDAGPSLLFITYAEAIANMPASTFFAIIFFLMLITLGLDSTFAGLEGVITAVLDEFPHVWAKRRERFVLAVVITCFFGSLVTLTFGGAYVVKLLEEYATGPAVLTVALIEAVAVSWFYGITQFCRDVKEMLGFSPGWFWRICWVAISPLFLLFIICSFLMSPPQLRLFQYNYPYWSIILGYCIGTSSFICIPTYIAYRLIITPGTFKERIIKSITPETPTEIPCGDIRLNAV

[2] = molecular target: dopamine transporter (DAT) (Homo sapiens, UniProt Q01959); experiment: cell-based
dopamine transporter (DAT), sequence (Q01959 whole entry): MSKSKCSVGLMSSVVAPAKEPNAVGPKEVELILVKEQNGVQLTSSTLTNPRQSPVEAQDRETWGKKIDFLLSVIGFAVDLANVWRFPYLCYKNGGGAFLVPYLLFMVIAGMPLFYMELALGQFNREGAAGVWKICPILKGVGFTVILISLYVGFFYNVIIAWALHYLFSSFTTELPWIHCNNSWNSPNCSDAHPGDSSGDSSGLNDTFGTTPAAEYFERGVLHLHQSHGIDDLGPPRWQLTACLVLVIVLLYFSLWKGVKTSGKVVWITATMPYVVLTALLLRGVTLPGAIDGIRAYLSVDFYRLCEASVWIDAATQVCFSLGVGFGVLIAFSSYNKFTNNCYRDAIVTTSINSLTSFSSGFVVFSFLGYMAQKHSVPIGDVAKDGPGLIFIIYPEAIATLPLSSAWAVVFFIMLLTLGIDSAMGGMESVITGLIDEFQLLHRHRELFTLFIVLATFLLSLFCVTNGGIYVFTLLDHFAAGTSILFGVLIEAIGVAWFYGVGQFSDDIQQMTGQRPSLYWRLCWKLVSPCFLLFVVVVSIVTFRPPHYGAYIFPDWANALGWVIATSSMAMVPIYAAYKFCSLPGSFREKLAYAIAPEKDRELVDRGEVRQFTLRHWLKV

[3] = molecular target: 5-HT2B serotonin receptors (Homo sapiens, UniProt P41595); experiment: Radioligand binding assay; conditions: for Ki: 5-HT2B receptor affinity Ki
5-HT2B serotonin receptors, sequence (P41595 whole entry): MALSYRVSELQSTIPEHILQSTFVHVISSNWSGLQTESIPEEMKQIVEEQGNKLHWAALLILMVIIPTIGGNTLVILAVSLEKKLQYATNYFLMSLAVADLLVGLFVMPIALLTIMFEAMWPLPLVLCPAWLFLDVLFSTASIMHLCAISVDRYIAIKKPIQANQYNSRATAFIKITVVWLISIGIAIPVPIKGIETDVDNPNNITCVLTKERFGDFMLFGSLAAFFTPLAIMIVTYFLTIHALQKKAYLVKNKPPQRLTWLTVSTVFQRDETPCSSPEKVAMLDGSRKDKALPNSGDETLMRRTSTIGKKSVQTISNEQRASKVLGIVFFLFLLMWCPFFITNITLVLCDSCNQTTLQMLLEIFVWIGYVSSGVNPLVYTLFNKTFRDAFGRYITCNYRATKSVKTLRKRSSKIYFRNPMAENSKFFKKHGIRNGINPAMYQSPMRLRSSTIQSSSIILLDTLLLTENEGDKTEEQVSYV

[4] = molecular target: serotonin transporter (SERT) (Homo sapiens, UniProt P31645); experiment: cell-based; type: cell-based
serotonin transporter (SERT), sequence (P31645 whole entry): as the sequence (P31645 whole entry) above

DAT = DAT (Homo sapiens, UniProt Q01959); experiment: Radioligand binding assay
DAT, sequence (Q01959 whole entry): as the sequence (Q01959 whole entry) above

α2C adrenoceptors = molecular target: T1, α2C adrenoceptors (Homo sapiens, UniProt P18825); experiment: Radioligand binding assay; conditions: α2C adrenoceptor affinity Ki
T1 sequence (P18825 1-462): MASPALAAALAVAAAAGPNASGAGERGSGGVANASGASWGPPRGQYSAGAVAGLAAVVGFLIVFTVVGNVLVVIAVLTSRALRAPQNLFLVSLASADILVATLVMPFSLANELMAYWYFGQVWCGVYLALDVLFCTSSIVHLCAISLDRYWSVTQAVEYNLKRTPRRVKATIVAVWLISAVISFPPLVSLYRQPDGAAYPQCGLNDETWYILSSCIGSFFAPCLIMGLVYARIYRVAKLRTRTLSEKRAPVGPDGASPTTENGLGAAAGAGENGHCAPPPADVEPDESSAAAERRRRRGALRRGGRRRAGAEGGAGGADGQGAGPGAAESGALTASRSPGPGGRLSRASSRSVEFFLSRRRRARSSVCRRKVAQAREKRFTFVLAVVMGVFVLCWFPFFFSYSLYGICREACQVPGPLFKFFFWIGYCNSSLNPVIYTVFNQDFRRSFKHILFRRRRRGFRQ

[5] = molecular target: human cloned 5-HT2B receptor (Homo sapiens, UniProt P41595); experiment: 5-HT2B functional assay, intracellular Ca++ mobilization; type: cell-based; conditions: HEK-T cells
human cloned 5-HT2B receptor, sequence (P41595 whole entry): as the sequence (P41595 whole entry) above

[6] = system: serotonin uptake in rat brain synaptosomes; conditions: ref Martinez-Clemente et al (2011); cited from earlier work
[7] = system: dopamine uptake in rat brain synaptosomes; conditions: ref Martinez-Clemente et al (2011); cited from earlier work
NET = NET (Homo sapiens, UniProt P23975); experiment: Radioligand binding assay
NET, sequence (P23975 whole entry): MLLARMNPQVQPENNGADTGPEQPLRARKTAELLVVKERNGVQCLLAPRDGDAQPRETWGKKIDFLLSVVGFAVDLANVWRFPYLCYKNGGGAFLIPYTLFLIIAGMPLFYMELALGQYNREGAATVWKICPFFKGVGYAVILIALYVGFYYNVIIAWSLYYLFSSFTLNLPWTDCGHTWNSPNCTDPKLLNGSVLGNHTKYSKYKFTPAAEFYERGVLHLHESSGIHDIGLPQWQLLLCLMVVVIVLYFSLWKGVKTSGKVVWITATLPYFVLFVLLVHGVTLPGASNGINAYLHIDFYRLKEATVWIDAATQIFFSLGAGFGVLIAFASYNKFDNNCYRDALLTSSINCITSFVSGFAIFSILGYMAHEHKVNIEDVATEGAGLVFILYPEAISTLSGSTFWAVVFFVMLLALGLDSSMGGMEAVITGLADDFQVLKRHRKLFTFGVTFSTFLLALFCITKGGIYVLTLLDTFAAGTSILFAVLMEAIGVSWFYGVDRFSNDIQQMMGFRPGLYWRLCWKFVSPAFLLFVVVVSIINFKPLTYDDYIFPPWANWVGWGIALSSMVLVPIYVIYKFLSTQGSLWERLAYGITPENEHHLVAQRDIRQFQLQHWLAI

[8] = NET Ki, inhibition of transporter uptake activity
[9] = DAT Ki, inhibition of transporter uptake activity
[10] = DAT pKi (mean +/- S.E.M), inhibition of transporter uptake activity, N=3
[11] = SERT Ki, inhibition of transporter uptake activity
[12] = NET pKi (mean +/- S.E.M), inhibition of transporter uptake activity, N=3
[13] = inhibition of transporter uptake activity
[14] = SERT pKi (mean +/- S.E.M), inhibition of transporter uptake activity, N=3
[15] = inhibition of transporter uptake activity, N=3

norepinephrine transporter (NET), sequence (P23975 whole entry): as above

CCCC(C(=O)c1cccc2ccccc12)N1CCCC1.Cl (stereo not drawn) [1-Naphyrone, 1-naphthalen-1-yl-2-pyrrolidin-1-ylpentan-1-one hydrochloride]
NET Ki [1]: submicromolar | Ki [1, 8]: 536 nM | Ki (SERT): < 100 nM | DAT Ki [2]: submicromolar | Ki ([2]; DAT Ki): < 100 nM | Ki [2, 9]: 48 nM | Ki [2, 10]: 47.9 nM | 5-HT2B receptor affinity Ki [3]: submicromolar | SERT Ki [4]: submicromolar | Ki [4, 11]: 352 nM

CC(N)Cc1ccc2occc2c1.Cl (stereo not drawn) [5-APB, 1-(benzofuran-5-yl)propan-2-amine hydrochloride]
Ki [1, 8]: 180 nM | Ki [1, 12]: 468 nM | NET Ki [1, 13]: submicromolar | Ki [2, 9]: 265 nM | Ki [2, 10]: 501 nM | DAT Ki [2, 13]: submicromolar | Ki [3]: < 100 nM and 14 nM | Ki (DAT): < 100 nM | Ki (α2C adrenoceptors): < 100 nM | 5-HT2B agonist EC50 [5]: nanomolar | 5-HT2B agonist activity [5]: potent full agonists | Ki [4, 11]: 811 nM | Ki [4, 14]: 1660 nM | SERT Ki [4, 13]: submicromolar

NC1Cc2ccc(I)cc2C1 (stereo not drawn) [5-iod-2-aminoindane, 5-iodo-2,3-dihydro-1H-inden-2-amine hydrochloride]
Ki [1, 8]: 311 nM | Ki [1, 12]: 813 nM | Ki [2, 9]: 1590 nM | Ki [2, 10]: 2450 nM | Ki [4, 11]: 879 nM | Ki [4, 14]: 1780 nM

CC(N)Cc1ccc2ccoc2c1.Cl (stereo not drawn) [6-APB, 1-(benzofuran-6-yl)propan-2-amine hydrochloride]
Ki [1, 8]: 117 nM | Ki [1, 12]: 302 nM | Ki [2, 9]: 150 nM | Ki [2, 10]: 234 nM | Ki [3]: 3.7 nM | Ki (α2C adrenoceptors): 45 nM | 5-HT2B agonist EC50 [5]: nanomolar | 5-HT2B agonist activity [5]: potent full agonists | Ki [4, 11]: 2700 nM | Ki [4, 14]: 5500 nM

CN[C@@H](C)Cc1ccc2c(c1)OCO2 [(+)-MDMA, 3,4-methylenedioxymethamphetamine, reference compound]
Ki ([1]; NET Ki): 398 nM | Ki ([1]; NET pKi (mean +/- S.E.M)): 2000 nM | Ki ([2]; DAT Ki): 897 nM | Ki ([2]; DAT pKi (mean +/- S.E.M)): 2400 nM | Ki ([4]; SERT Ki): 948 nM | Ki ([4]; SERT pKi (mean +/- S.E.M)): 2750 nM

CN[C@H](C)Cc1ccc2c(c1)OCO2 [(−)-MDMA, 3,4-methylenedioxymethamphetamine, reference compound]
Ki ([1]; NET Ki): 704 nM | Ki ([1]; NET pKi (mean +/- S.E.M)): 3160 nM | Ki ([2]; DAT Ki): 2420 nM | Ki ([2]; DAT pKi (mean +/- S.E.M)): 6170 nM | Ki ([4]; SERT Ki): 2310 nM

CN(C)CCC=C1c2ccccc2CCc2ccccc21 [Amitriptyline, reference compound]
Ki ([2]; DAT Ki): 4640 nM | Ki ([2]; DAT pKi (mean +/- S.E.M)): 9770 nM

Cc1ccc(C(=O)C(C)NCc2ccccc2)cc1 (stereo not drawn) [Benzedrone, 2-(benzylamino)-1-(4-methylphenyl)propan-1-one hydrochloride]
Ki [1, 8]: 1220 nM | Ki [1, 12]: 3160 nM | Ki [2, 9]: 1410 nM and 1490 nM | Ki [2, 10]: 2290 nM | Ki [4, 11]: > 10000 nM | Ki [4, 14]: 17800 nM

c1ccc(C(c2ccccc2)C2CCCCN2)cc1 (stereo not drawn) [Desoxypipradrol, 2-benzhydrylpiperidine hydrochloride]
Ki [1, 8]: 213 nM | Ki [1, 12]: 550 nM | Ki [2, 9]: 32 nM | Ki [2, 10]: 50.1 nM | Ki [4, 11]: > 10000 nM | Ki [4, 14]: 53700 nM

CCC(C)CC(C)N (stereo not drawn) [Dimethylamylamine, 4-methylhexan-2-amine hydrochloride]
Ki [1, 8]: 649 nM | Ki [1, 12]: 1700 nM | Ki [2, 9]: > 10000 nM | Ki [2, 10]: 18200 nM | Ki [4, 11]: > 10000 nM | Ki [4, 14]: 178000 nM

CNC(C)C(=O)c1ccc(C)cc1.Cl (stereo not drawn) [Mephedrone, 2-methylamino-1-(4-methylphenyl)propan-1-one hydrochloride]
Ki [1, 8]: 511 nM | Ki [2, 9]: 543 nM | Ki [2, 10]: 832 nM | concentration inhibiting serotonin uptake [6]: submicromolar | 5-HT2B receptor affinity Ki [3]: submicromolar | concentration inhibiting dopamine uptake [7]: submicromolar | Ki [4, 11]: 4940 nM | Ki [4, 14]: 10200 nM

CNC(C)Cc1cccs1.Cl (stereo not drawn) [Methiopropamine, methyl[(1-(2-thienyl)]propan-2-amine hydrochloride]
Ki ([1]; read-out: NET Ki, inhibition of transporter uptake activity): 313 nM | Ki ([2]; read-out: DAT Ki, inhibition of transporter uptake activity): 577 nM | Ki ([4]; read-out: SERT Ki, inhibition of transporter uptake activity): > 10000 nM

CNC(C)Cc1cccs1.Cl (stereo not drawn) [Methiopropamine]
NET pKi (mean +/- S.E.M) [1, 15]: 6.09±0.07 | DAT pKi (mean +/- S.E.M) [2, 15]: 6.05±0.07 | SERT pKi (mean +/- S.E.M) [4, 15]: 4.14±0.07

CC(NCc1ccccc1)C(=O)c1ccc2c(c1)OCO2 (stereo not drawn) [Methylenedioxy-N-benzylcathinone, 2-(benzylamino)-1-(3,4-methylenedioxyphenyl)propan-1-one]
Ki [1, 8]: 1630 nM | Ki [1, 12]: 4270 nM | Ki [2, 9]: 637 nM | Ki [2, 10]: 977 nM | Ki [4, 11]: > 10000 nM | Ki [4, 14]: 29500 nM

NC1Cc2cc3c(cc2C1)OCO3 [Methylenedioxy-aminoindane, 6,7-dihydro-5H-cyclopenta[f][1,3]benzodioxol-6-amine]
Ki [1, 8]: 641 nM | Ki [1, 12]: 1660 nM | Ki [2, 9]: 4920 nM | Ki [2, 10]: 7590 nM | Ki ([4]; SERT Ki): > 10000 nM | Ki ([4]; SERT pKi (mean +/- S.E.M)): 11700 nM

Cl.NC1CCc2cc3c(cc2C1)OCO3 (stereo not drawn) [Methylenedioxy-aminotetralin, 5,6,7,8-tetrahydrobenzo[f][1,3]benzodioxol-6-amine hydrochloride]
Ki [1, 8]: 894 nM | Ki [1, 12]: 2290 nM | Ki [2, 9]: 4070 nM | Ki [2, 10]: 6310 nM | 5-HT2B receptor affinity Ki [3]: submicromolar | Ki [4, 11]: 1100 nM | Ki [4, 14]: 2240 nM

CCNC(C)C(=O)c1ccc(C)cc1 (stereo not drawn) [Methylethcathinone, 2-ethylamino-1-(4-methylphenyl)propan-1-one hydrochloride]
Ki [1, 8]: 1670 nM | Ki [1, 12]: 4370 nM | Ki [2, 9]: 565 nM | Ki [2, 10]: 832 nM | Ki [4, 11]: 1800 nM | Ki [4, 14]: 3720 nM

CCCC(C(=O)c1ccc2ccccc2c1)N1CCCC1.Cl (stereo not drawn) [Naphyrone, 1-naphthalen-2-yl-2-pyrrolidin-1-ylpentan-1-one hydrochloride]
NET Ki [1]: submicromolar | Ki ([1]; NET Ki): 200 nM | Ki (SERT): < 100 nM | DAT Ki [2]: submicromolar | Ki ([2]; DAT Ki): 53 nM | Ki ([2]; DAT pKi (mean +/- S.E.M)): 52.5 nM | Ki (NET): < 100 nM | 5-HT2B receptor affinity Ki [3]: submicromolar | SERT Ki [4]: submicromolar | Ki ([4]; SERT Ki): 235 nM
